Measured values as given in patent US20140080903A1, “APPLICATION OF ALPHA-MANGOSTIN IN PREPARATION OF MEDICAMENTS FOR ALZHEIMER'S DISEASE” (BOMAI LIMITED, priority 2011, published 2014).
Like-named read-outs stand apart in the source and are kept apart here. Each block holds one compound with its values, some of them ahead of it.

Assays:
[1] = biological target: T1, Aβ (Homo sapiens, UniProt P05067); test: Thioflavin-T fluorescence kinetics of Aβ aggregation; format: biochemical; details: inhibitor:Aβ 1:1, 37° C.; for incubation time at which Aβ enters into accumulation: Aβ itself 4 hours
T1 construct: purchased Sigma-Aldrich Corporation (China)
T1 sequence (P05067 672-711 limits assumed): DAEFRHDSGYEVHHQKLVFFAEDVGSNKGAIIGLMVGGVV
Description: Resveratrol, Curcumin and Propidium Iodide are the reported inhibitors on Aβ aggregation.
1 mg Aβ was dissolved in 500 μL HFIP, and put at room temperature for 120 minutes with intermittent shaking Then HFIP was dried by high pure nitrogen blowing and 100 μL DMSO was added to prepare an Aβ stock of 2.3 mM, which was stored at −20° C. DMSO was employed to dilute Aβ stock and 2 μL diluted solution was added to 16 μL PBS (0.215M, pH 8.0), which made a solution of Aβ at […], to which 2 μL α-Mangostin (25 μM) or other inhibitors, and blank solvent was added. Followed with incubation for 30 minutes, the mixture was added 80 μL Thioflavin-T(10 μM)/Glycine-NaOH (50 mM, pH8.5) and transferred to microplate for fluorescence intensity measurement. The parameters for measurement was set up as follow: instrument temperature of 37° C., shaking frequency of 240 rpm, radius of […], excitation wavelength of 446 nm, emission wavelength of 485 nm, bandwidth of 5 nm, and detection frequent of every 30 minute. Fluorescence intensity was recorded and statistically analyzed.

[2] = system: SAM-P8 mice; test: Morris water maze test in SAM-P8 mice; format: in vivo; details: for distance: mid-dose group
Description: Female SAM-P8 mice of 8-month old were employed as the model animal in the invention. All of the mice experimental procedures strictly followed the Guide for the Care and Use of Laboratory Animals as adopted and promulgated by the National Institutes of Health, USA, including sterile rearing environment, temperature controlled between 23° C. and 25° C., humidity controlled at 55±5%, and an interval of twelve hours light.
The concentration and dose of α-Mangostin applied in the experiment were adjusted according to the different animal models. In molecular experiments, α-Mangostin was employed to calibrate the concentration of Aβ, prepared with the unit of molar concentration, and compared with the known Aβ aggregation inhibitor. In cellular experiments, α-Mangostin was also prepared with the unit of molar concentration, and provided in screening from the concentration of 50 pmol/L to 500nmol/L. In animal experiments, following the established practice, α-Mangostin was prepared with the unit of weight/animal weight, provided dosage range across three orders of magnitude of low dose (1 μg/kg), mid dose (10 μg/kg), high dose (100 μg/kg), and administrated orally (O.P., Solid granules).
SAM-P8 mice were weight and divided into five groups randomly, including the model group, low-dose (1 μg/kg) , mid-dose (10 μg/kg) , high-dose ([…]) groups and positive control group treated with resveratrol (10 mg/kg). SAM-R1 mice were used as normal control. Reagents were mixed in food and applied to mice from the 3rd day after grouping (enter 6 months age) to the end of the test. Normal control group and model group were administrated with the same amount of food.
Morris water maze test was carried out when SAM-P8 mice entered the age of 8 months. Water temperature in the experiment was controlled at 22±0.5° C. Mice were put into water with their faces towards the wall and backs towards water. The computer started automatically to record the trace and time (escape latency) of mice seeking the platform within 100 seconds. […] The tests were carried out twice every day, with an interval of 6 hours, and continued for 3 days. After place navigation test, the platform was removed. Mice were placed into water at a certain place of entry. The first time those mice reached the platform and the times that mice across the platform were recorded.

[3] = biological target: Histamine H1-receptor (Homo sapiens, UniProt P35367); details: generally; cited from earlier work
Chain of Histamine H1-receptor (P35367 whole entry, species assumed): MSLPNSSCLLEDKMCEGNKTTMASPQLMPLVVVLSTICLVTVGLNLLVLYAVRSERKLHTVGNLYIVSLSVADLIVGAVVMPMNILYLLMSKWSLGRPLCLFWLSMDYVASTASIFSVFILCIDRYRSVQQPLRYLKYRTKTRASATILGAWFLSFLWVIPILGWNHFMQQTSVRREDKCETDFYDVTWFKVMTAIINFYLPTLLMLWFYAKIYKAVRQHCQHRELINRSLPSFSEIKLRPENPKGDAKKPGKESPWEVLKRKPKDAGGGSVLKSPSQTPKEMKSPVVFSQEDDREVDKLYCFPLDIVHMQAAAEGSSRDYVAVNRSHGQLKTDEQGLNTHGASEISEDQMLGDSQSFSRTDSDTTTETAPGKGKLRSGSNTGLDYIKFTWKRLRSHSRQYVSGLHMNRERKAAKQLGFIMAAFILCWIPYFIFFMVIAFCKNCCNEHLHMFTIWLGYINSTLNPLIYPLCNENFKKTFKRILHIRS

[4] = system: primary neuronal cells; test: high content assay of neuroprotective effect against Aβ oligomer; format: cell-based, SD rat; details: 50 nM α-Mangostin, 1 μM Aβ oligomer
Description: Mammalian neurons in the experiment were prepared from embryonic day 15 SD rat embryos. A medium specific for neurons was employed, including neurobasal, 2% B27 and 1% glutamine that were all commercial and used following the instructions of the manufacturer.
Embryonic day 15 SD rats are etherized and embryos were collected to a sterile dish with an anatomic buffer. Heads of the embryos were cut to a precooling dish with an anatomic buffer. A pair of straight forceps were inserted through eyes to fix the head, and another pincett was inserted along the head sagittal suture. The mening and skull were torn from front to back and to collect the brain. The hippocampus was peeled to the anatomic buffer in a precooling dish. The hippocampus was dissected by scissors disinfected with 75% alcohol. The minced tissues were collected into a marked 15 ml centrifuge tube and let them naturally precipitate to the bottom of the tube. The supernatant was discarded, and 2 mL 0.05% Trypsin was added. The tube was flipped several times and let it incubate for 5 minutes at 37° C. (shake evenly every two minutes). […]
The live cell dye stock in CELLOMICS ® Multiparameter Cytotoxicity 2 Kit was diluted to its working concentration. […] The fluorescence intensity was measured with high content plate reader and analyzed by the software of Cell Health Profiling Bio Application.

[5] = biological target: T2, Aβ oligomer (Homo sapiens, UniProt P05067); test: ELISA determination of Aβ oligomer (6E10/A11); format: biochemical
T2 construct: purchased Sigma-Aldrich Corporation (China)
T2 sequence (P05067 672-711 limits assumed): as the sequence (P05067 672-711 limits assumed) above
Description: 1 mg Aβ was dissolved in 500 μL HFIP at room temperature, of which 100 μL was transferred into a clean centrifuge tube (1.5 mL), where 900 μL sterile deionized water was added. Followed with centrifugation, the supernatant was moved to another clean centrifuge tube (1.5 mL) and HFIP was dried with high pure nitrogen blowing. Then the solution was stirred at 500 rpm for 48 hours at 22° C., using a micro stir bar, to get the solution of Aβ oligomer (1 μM). In inhibition experiment, α-Mangostin was added into the Aβ oligomer solution to obtain the final concentrations of 5 μM, 2 μM, 1 μM, 0.5 μM and 0.2 μM, respectively, and followed with another 12 hours stirring at 500 rpm and 22° C.α-Mangostin can also be added before stirring with Aβ oligomer for 12 hours.
The incubated solution was applied into the 96-well microplate coated with 100 μL monoclonal anti-Aβ antibody (6E10). After incubation for 1 hour at 37° C., the wells were washed 3 times with washing buffer and 100 μL Oligomer-specific antibody (A11) was applied. After 5 times washing, 100 μL HRP-conjugated Goat anti-Rabbit IgG was applied. After another 5 times washing and 15 minutes colour developing, the optical density was recorded and statistically analyzed with plate reader.

[6] = 5 μM α-Mangostin, mole ratio to Aβ oligomer 5:1

incubation time at which Aβ enters into plateau [1]: 15 h
Structure (SMILES): COc1cc(/C=C/C(=O)CC(=O)/C=C/c2ccc(O)c(OC)c2)ccc1O [curcumin]

incubation time at which Aβ enters into plateau [1]: 15 h
Structure (SMILES): Oc1ccc(C=Cc2cc(O)cc(O)c2)cc1 [resveratrol, reference compound]
escape latency and distance compared with model group ([2]; from day 3, resveratrol 10 mg/kg positive control): notably decreased

incubation time at which Aβ enters into plateau [1]: 10 h | maximum fluorescence intensity compared with Aβ incubated itself ([1]; within 24 hours): 10% | incubation time at which Aβ enters into accumulation [1]: 6 h
Structure (SMILES): CC[N+](C)(CC)CCC[n+]1c(-c2ccccc2)c2cc(N)ccc2c2ccc(N)cc21.[I-].[I-] [propidium iodide]

Structure (SMILES): COc1c(O)cc2oc3cc(O)c(CC=C(C)C)c(O)c3c(=O)c2c1CC=C(C)C [α-Mangostin]
inhibition of Aβ aggregation ([1]; within 24 hours): almost completely inhibited | incubation time at which Aβ enters into accumulation [1]: no accumulation phase appeared within 24 hours | working concentration as Histamine H1-receptor antagonist [3]: higher than 10^−6 mol/L | mitochondrial membrane potential ([4]; model 70.25±6.97%): 105.25±5.84% | cell membrane permeability of neuronal cells ([4]; model 173.75±6.82%): 107.75±9.39% | formation of Aβ oligomer inhibited to [5, 6]: 14.15±2.86% | formed Aβ oligomer disaggregated to [5, 6]: 39.58±3.25% | IC50 ([5]; read-out: IC50 of disaggregation of formed Aβ oligomer): 1590 ± 820 nM | IC50 ([5]; read-out: IC50 of inhibition on Aβ oligomer formation): 1090 ± 540 nM | escape latency ([2]; day 2, mid-dose group 10 m/kg, oral in food, model 72.17±10.09 s): 46.16 ± 5.51 s | escape latency ([2]; from day 3, first value, mid-dose group 10 μg/kg, model 55.66±5.51 s): 40.02 ± 4.16 s | distance ([2]; from day 3, first value, model 773.06±65.54): 438.78±46.02 cm | escape latency ([2]; from day 3, second value, mid-dose group 10 μg/kg, model 39.93±4.12 s): 19.05 ± 3.27 s | distance ([2]; from day 3, second value, model 543.13±56.72): 223.15±31.29 cm
